# Experimental data taken from ChEMBL document CHEMBL1159372, “Two flavone C-glycosides from the style of Zea mays with glycation inhibitory activity” (J Nat Prod, 2003).
# Assay: Inhibition of advanced glycation end product formation at 1 mM after 7 days by fluorescence assay
# Type: physicochemical
# Details: 168 h, 1000 µM
row,Structure (SMILES),inhibition (INH)
1,COc1cc(-c2cc(=O)c3c(O)c([C@H]4C[C@@H](O)[C@H](O)[C@H](C)O4)c(O[C@@H]4O[C@H](CO)[C@@H](O)[C@H](O)[C@H]4O)cc3o2)ccc1O,53%
2,COc1cc(-c2cc(=O)c3c(O)c([C@H]4C[C@@H](O)[C@H](O)[C@H](C)O4)c(O)cc3o2)ccc1O,64.2%
3,N=C(N)NN [PIMAGEDINE],60.5%
